Data published in PubChem BioAssay (NCI).
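Exposure lasted 48 hours, with cells grown in 96-well plates and compounds tested at five concentrations. Definition used: TGI = concentration required for complete inhibition of growth.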

How the values were obtained:
Assay in all cases: DTP human tumour cell line panel, 48 h
A549 NSCLC = system: A549 NSCLC
RPMI-8226 leukemia = system: RPMI-8226 leukemia
U251 CNS = system: U251 CNS
SNB-75 CNS = system: SNB-75 CNS
KM12 colon = system: KM12 colon
SR leukemia = system: SR leukemia

SMILES	TGI (A549 NSCLC) [µM]	TGI (RPMI-8226 leukemia) [µM]	TGI (U251 CNS) [µM]	TGI (SNB-75 CNS) [µM]	TGI (KM12 colon) [µM]	TGI (SR leukemia) [µM]
NC(N)=NS(=O)(=O)c1ccc(NNc2c3ccccc3nc3c(C(=O)Nc4ccc(S(=O)(=O)Nc5ncccn5)cc4)cccc23)cc1	> 100	> 100	> 100	> 100	> 100	–
CC1(C)/C(=N\NC(N)=O)C2CCC1C2 (stereo not drawn)	> 100	> 100	> 100	> 100	> 100	> 100
COC(=O)c1c(O)ccc2c1c1c(n2Cc2cc(OC)cc(OC)c2)C(=O)c2ccccc2C1	> 100	36.2	> 100	34.5	> 100	> 100
COc1cccc(CCNC(=O)Cc2ccccc2CCO)c1	> 100	–	> 100	> 100	> 100	> 100
Cc1ccc(-c2c(C#N)c(-c3ccc(C)cc3)n(NS(=O)(=O)c3ccccc3)c(=O)c2C#N)cc1	> 100	38.8	> 100	> 100	> 100	–
Cc1ccc(S(=O)(=O)c2[nH]cc(/C(=C\C3CCCCC3)[N+](=O)[O-])c2C2CCCCC2)cc1	6.59	0.715	4.56	5.81	4.1	0.891
O=c1oc2ccccc2cc1-c1cc2ccccn2c1	> 100	> 100	> 100	> 100	> 100	–
O=[N+]([O-])C[C@@]12O[C@]3(O)C4C5CC(C6C5C3C61)C42 (stereo partly drawn)	> 100	> 100	> 100	> 100	> 100	> 100
CC(C)NC(=O)OCc1c(COC(=O)NC(C)C)c(-c2cc[n+](COC(=O)C3CC3)cc2)n2c1CCC2	> 100	> 100	> 100	> 100	> 100	> 100
O=C(N/N=C(\c1ccccc1)c1ccccn1)NC1CCCCC1	> 100	> 100	> 100	> 100	> 100	> 100
O=[N+]([O-])c1ccc2[nH]c(=S)[nH]c(=S)c2c1	> 100	> 100	> 100	> 100	> 100	> 100
Cc1ccc(C2SCC(=O)N2c2ccc(-n3c(-c4ccccc4)nc4ccccc4c3=O)cc2)cc1 (stereo not drawn)	> 100	55.1	35	90.5	> 100	> 100
O=C1Nc2cccc(Cl)c2/C1=C\c1c(Cl)nc2n1CCS2	> 100	> 100	> 100	> 100	> 100	> 100
CO/N=C(\C(=O)OC(=NC1CCCCC1)NC1CCCCC1)c1csc(NC(c2ccccc2)(c2ccccc2)c2ccccc2)n1	> 10	> 10	> 10	> 10	> 10	> 10
CCn1c(-c2ccccc2)cs/c1=N\C(P(=O)(O)O)P(=O)(O)O	> 100	> 100	> 100	> 100	> 100	> 100
N#CC1C(=S)NC(c2ccccc2)=CC12CCCCC2 (stereo not drawn)	> 100	54.3	> 100	> 100	60.2	50.2
O=C(O)CCCc1nc2c(n1Cc1ccccc1)C(=O)c1ccccc1C2=O	> 100	68.8	> 100	–	> 100	> 100
CCOC(=O)Nc1[nH]cc(-c2ccccc2)c1C#N	> 100	> 100	> 100	> 100	> 100	> 100
C=CCc1cccc2cc(C(=O)NCc3ccccc3)c(=N)oc12	> 100	> 100	> 100	> 100	> 100	> 100
CCOC(=O)CCC(NC(=O)Cc1ccc(Nc2nc3cc(F)c(F)cc3nc2C(=O)OCC)cc1)C(=O)OCC (stereo not drawn)	> 100	–	> 100	77.2	> 100	55.9
Cc1ccc(/C=N/Nc2cc(C)c3cccc(C)c3n2)s1	26.3	67.4	> 100	> 100	23.7	> 100
CC1(C)[C@@H](Cn2ccc(=O)[nH]c2=O)CC[C@@]1(C)CO	> 100	–	> 100	> 100	> 100	–
Cc1n(Cc2ccccc2)c2c([n+]1C)C(=O)c1ccccc1C2=O	0.197	39.1	0.131	0.219	0.708	> 45.5
CC(=O)c1ccccc1NP(=O)(c1ccccc1)c1ccccc1	> 100	62.8	> 100	–	> 100	> 100
O=c1[nH]cnc2c1cnn2Cc1cn(CCCCO)nn1	> 100	> 100	> 100	–	> 100	> 100
O=C1C2SC34c5c2c2ccccc2n5CCC3CCCN14 (stereo not drawn)	> 100	> 100	> 100	–	> 100	> 100
COC(=O)/C=C(\C(=O)OC)C1C(=O)Oc2c(C)c(=O)c3ccccc3n21 (stereo not drawn)	> 100	> 100	> 100	> 100	> 100	> 100
COC(=O)c1ccc(/C=C/c2cc(O)ccc2O)cc1	> 100	4.14	8.44	68.5	28	3.69
CN(C)c1ccc(/C=c2/c3ccccc3n3c2c2c([n+]3C)CCCC2)cc1	1.96	0.656	2.3	0.265	0.539	1.06
